Test results: US4151280A, “Pyrroloquinoxalines” (Roussel Uclaf, priority 1977, dated 1979)
Where two headings read alike, the source gives them in different places.

System: passive cutaneous anaphylaxis
Test: Passive cutaneous anaphylaxis (PCA) in rats;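 further: male rats, challenged with antigen plus Evans blue three days post sensitization, killed 30 min later, dorsal skin bluing graded on a five point scale, summed over four sites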
Assay type: in vivo
Conditions: dosed immediately prior to intravenous challenge, rats sensitized intradermally with anti-ovalbumen antiserum; for ED50: Rattus norvegicus
[1] = po, read-out: ED 50 p.o. (dose of drug giving 50% inhibition), p.o.
[2] = read-out: ED 50 i.v. (dose of drug giving 50% inhibition), i.v.

Experimental: Cutaneous anaphylaxis can be induced in rats by intradermal (ID) sensitization with antiserum followed three days later by systemic challenge with antigen. Evans blue dye injected with the antigen is used as a marker to assess the severity of the local response. […] Brown: Pergamon Press: --male rats weighing 180-220 grams are used in groups of seven.
Preparation of Antigen for Sensitization (Alum precipitated ovalbumen)
Wash 120 grams of Al(OH)3 in 140 ml of saline (use of a macerater facilitates mixing).
Centrifuge at 3,000 r.p.m. for about 10 minutes.
Resuspend the precipiate with 300 ml of albumen egg powder (1.3 mg/ml) in saline and allow to stand for 30 minutes.
Centrifuge at 3,000 r.p.m. for 10 minutes.
Weigh the wet precipitate and to each gram weight add 1 ml of saline. Store in refrigerator (Quantity sufficient for 60 rats for a 3 day sensitization program).
Preparation of Antiserum (anti-ovalbumen)
1 ml of the alum precipitated ovalbumen was injected subcutaneously into rats weighing 180-200 grams on days 0,2,4. The rats were bled on day 14 either by cardiac puncture or via the dorsal abdominal aorta. Equal quantities of serum from each animal were pooled and thoroughly mixed and 2 ml aliquots were stored at -20° C. in plastic tubes.
The animals were then left for a period of three days to develop sensitization.
The injections were speeded up by using an automatic 1 ml self-filling glass syringe. The "challenged" rats were killed after 30 minutes, usually pithed) and their skin on the dorsal surface was removed. The degree and area of blueing, proportional to the anaphylactic reaction was assessed on a five point scoring system.
Total scores for sites 1,2,3 and 4=X
2. mean value of X for each group=X

## C=CCn1c(=O)c2cc(C(=O)O)cn2c2ccccc21 [Example 19, 5-allyl-4,5-dihydro-4-oxo-pyrrolo[1,2-a]quinoxaline-2-carboxylic acid]
[1]
  ED50: 0.28 mg/kg
[2]
  ED50: 0.035 mg/kg

## CCCCn1c(=O)c2cc(C(=O)O)cn2c2ccccc21 [Example 16, 5-n-butyl-4,5-dihydro-4-oxo-pyrrolo[1,2-a]quinoxaline-2-carboxylic acid]
[1]
  ED50: 0.058 mg/kg
[2]
  ED50: 0.019 mg/kg

## CCOC(=O)c1cc2c(=O)n(C)c3ccccc3n2c1 [Example 1, ethyl 5-methyl-4,5-dihydro-4-oxo-pyrrolo[1,2-a]quinoxaline-2-carboxylate]
[1]
  ED50: 7 mg/kg

## Cn1c(=O)c2cc(C(=O)O)cn2c2ccccc21 [Example 12, 5-methyl-4,5-dihydro-4-oxo-pyrrolo[1,2-a]quinoxaline-2-carboxylic acid]
[1]
  ED50: 0.54 mg/kg
[2]
  ED50: 0.089 mg/kg

## O=C(O)c1cc2c(=O)n(C3CCCC3)c3ccccc3n2c1 [Example 20, 5-cyclopentyl-4,5-dihydro-4-oxo-pyrrolo[1,2-a]quinoxaline-2-carboxylic acid]
[2]
  ED50: 0.37 mg/kg

## CCCn1c(=O)c2cc(C(=O)O)cn2c2ccccc21 [Example 15, 5-n-propyl-4,5-dihydro-4-oxo-pyrrolo[1,2-a]quinoxaline-2-carboxylic acid]
[1]
  ED50: 0.032 mg/kg
[2]
  ED50: 0.019 mg/kg

## CCCCCn1c(=O)c2cc(C(=O)O)cn2c2ccccc21 [Example 17, 5-n-pentyl-4,5-dihydro-4-oxo-pyrrolo[1,2-a]quinoxaline-2-carboxylic acid]
[1]
  ED50: 0.31 mg/kg
[2]
  ED50: 0.087 mg/kg

## CCn1c(=O)c2cc(C(=O)O)cn2c2cc(Cl)ccc21 [24(d), 8-chloro-5-ethyl-4,5-dihydro-4-oxo-pyrrolo[1,2-a]quinoxaline-2-carboxylic acid]
[1]
  ED50: 0.29 mg/kg
[2]
  ED50: 0.035 mg/kg

## CC(C)n1c(=O)c2cc(C(=O)O)cn2c2ccccc21 [Example 18, 5-isopropyl-4,5-dihydro-4-oxo-pyrrolo[1,2-a]quinoxaline-2-carboxylic acid]
[2]
  ED50: 0.85 mg/kg

## CCCCn1c(=O)c2cc(C(=O)OCC)cn2c2ccccc21 [Example 5, ethyl 5-n-butyl-4,5-dihydro-4-oxo-pyrrolo[1,2-a]quinoxaline-2-carboxylate]
[1]
  ED50: 4.1 mg/kg

## 5-n-butyl-7-(and 8)-nitro-4,5-dihydro-4-oxo-pyrrolo[1,2-a]quinoxaline-2-carboxylic acid [23(c)]
i.v.
  ED 50 i.v. (dose of drug giving 50% inhibition): 0.025 mg/kg
p.o.
  ED 50 p.o. (dose of drug giving 50% inhibition): 0.26 mg/kg

## O=C(O)c1cc2c(=O)n(-c3ccccc3)c3ccccc3n2c1 [Example 13, 5-phenyl-4,5-dihydro-4-oxo-pyrrolo[1,2-a]quinoxaline-2-carboxylic acid]
[1]
  ED50: 19 mg/kg
[2]
  ED50: 1.57 mg/kg

## CCn1c(=O)c2cc(C(=O)O)cn2c2ccccc21 [Example 14, 5-ethyl-4,5-dihydro-4-oxo-pyrrolo[1,2-a]quinoxaline-2-carboxylic acid]
[1]
  ED50: 0.035 mg/kg
[2]
  ED50: 0.026 mg/kg

## CCCCn1c(=O)c2cc(C(=O)O)cn2c2cc(Cl)ccc21 [Example 21, 5-n-butyl-8-chloro-4,5-dihydro-4-oxo-pyrrolo[1,2-a]quinoxaline-2-carboxylic acid]
[1]
  ED50: 0.114 mg/kg
[2]
  ED50: 0.019 mg/kg

## CCCCn1c(=O)c2cc(C(=O)O)cn2c2cc(Cl)c(Cl)cc21 [Example 22, 5-n-butyl-7,8-dichloro-4,5-dihydro-4-oxo-pyrrolo[1,2-a]quinoxaline-2-carboxylic acid]
[1]
  ED50: 0.117 mg/kg
[2]
  ED50: 0.014 mg/kg
